Patent US11155586B2, “Cystine knot scaffold platform” (Genentech, Inc., priority 2015, dated 2021)
Positions of bridges follow the written chain, without caps; N, C: chain ends. Non-standard residues stand in square brackets, D forms with d. Residues, ends and D or L forms follow the SMILES beside them. 1Nal = N[C@@H](Cc1cccc2ccccc12)C(=O)O; 2Nal = N[C@@H](Cc1ccc2ccccc2c1)C(=O)O

Target: T1, hVEGF-A (Homo sapiens, UniProt P15692)
T1 sequence (P15692 207-395): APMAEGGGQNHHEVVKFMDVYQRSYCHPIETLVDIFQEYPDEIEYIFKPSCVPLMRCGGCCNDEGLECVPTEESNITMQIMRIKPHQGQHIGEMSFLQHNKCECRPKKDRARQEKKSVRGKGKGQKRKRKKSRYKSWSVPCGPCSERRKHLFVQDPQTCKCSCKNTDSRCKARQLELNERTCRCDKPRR
Assay: KDR-CHO VEGF assay to determine cellular IC50 (VEGF mediated Tyr phosphorylation of KDR)
Assay type: cell-based
Experimental: KDR-CHO cells (CHO cells stably transfected with gD tagged-KDR) were grown in cell growth medium (DMEM/Ham's F-12, 10% diafiltered FBS (GIBCO catalog no. 26400), 25 mM HEPES, 2 mM L-GLUTAMAX™). For VEGF stimulation assay, 5×10^4 cells/well were plated in 100 μl of cell plating medium (DMEM/Ham's F-12, 0.2% BSA, 0.25% diafiltered FBS, 25 mM HEPES, 2 mM L-GLUTAMAX™) in 96-well tissue culture plate and incubated at 37° C. overnight. The medium was replaced with 100 I1 of serum-free cell stimulation medium (DMEM/Ham's F-12, 0.5% BSA, 25 mM HEPES) and cells were incubated at 37° C. for 2 hr. One hour before stimulation, the medium was replaced with 50 I1 of serum-free cell stimulation medium. Concurrently, VEGF (50 ng/ml for hVEGF, 100 ng/ml for mVEGF and rVEGF) was pre-incubated with titrated amount of CKP or anti-VEGF in 50 μl of serum-free cell stimulation medium at 37° C. for 1 hour and added to the cells. The cells were stimulated for 15 min at 37 C and the medium is removed. The cells were lysed with 130 I1 of ice-cold cell lysis buffer (150 mM NaCl, 50 mM HEPES, 0.5% Triton-X 100, HALT protease and phosphatase inhibitor cocktail (ThermoFisher Scientific, Inc. catalog no. 78444), 5 mM EDTA). VEGF mediated Tyr phosphorylation of KDR was determined by ELISA-based assay. Briefly, MAXISORP™ 96 well plates (ThermoFisher Scientific, Inc. catalog no. 439454) were coated with 100 I1 of anti-gD antibody diluted in PBS (1 μg/ml) at 4° C. overnight and washed three times with washing buffer (PBS, 0.05% TWEEN®20, pH 7.4). The plates were blocked with 300 I1 of blocking buffer (PBS, 0.5% BSA) at room temperature for 1 hour followed by washing three times with washing buffer. The above KDR-CHO cell lysate (100 μl) was added to each well and incubated at room temperature for 2 hours. The plates were washed four times with washing buffer followed by incubation with 100 I1 of 0.5 μg/ml biotin-conjugated anti-phosphotyrosine (clone 4G10, Millipore catalog no. 16-103) in blocking buffer at room temperature for 2 hours. After washing four times, the plates were incubated with 100 I1 of HRP-conjugated streptavidin in blocking buffer at room temperature for 30 min. After washing four times, the plates were developed with 100 I1 of TMB substrate (BD Biosciences) at room temperature for 20-30 min and stopped by addition of 50 μl of H2SO4 solution. The optical density of each well was determined using a microplate reader set to 450 nm.

Structure (SMILES) | FOLD IMPROVEMENT RELATIVE TO VARIANT 9.54.90 (Table 36, from cellular IC50) | FOLD IMPROVEMENT RELATIVE TO VARIANT 9.54.90 (Table 38, from cellular IC50)
CC[C@H](C)[C@H](NC(=O)[C@@H]1CSSC[C@H](NC(=O)CN)C(=O)N[C@@H](CC(N)=O)C(=O)N[C@@H]([C@@H](C)CC)C(=O)N[C@@H](CCSC)C(=O)N[C@@H](CC(C)C)C(=O)N2CCC[C@H]2C(=O)N[C@@H](Cc2ccccc2)C(=O)N[C@@H](Cc2c[nH]c3ccccc23)C(=O)NCC(=O)N[C@H]2CSSC[C@H](NC(=O)[C@H](CCC(=O)O)NC(=O)[C@H](Cc3ccccc3)NC(=O)[C@H](CC(=O)O)NC(=O)[C@H](CCCNC(=N)N)NC(=O)CNC2=O)C(=O)N[C@@H](Cc2ccccc2)C(=O)N[C@@H](Cc2ccc(O)cc2)C(=O)N[C@@H](CCC(=O)O)C(=O)N1)C(=O)N[C@H]1CSSC[C@@H](C(=O)NCC(=O)O)NC(=O)[C@H](CO)NC(=O)[C@H](CCC(N)=O)NC(=O)[C@H](Cc2ccc(O)cc2)NC(=O)[C@H](Cc2ccc(O)cc2)NC(=O)[C@H](CCC(N)=O)NC1=O [9.54.90.62] (H-GCNIMLPFWGCGRDFECFYECICQYYQSCG-OH; disulfide 2-21, 11-17, 23-29; N-terminus and C-terminus assumed) | 1.47 | 1.47
CC[C@H](C)[C@H](NC(=O)[C@@H]1CSSC[C@H](NC(=O)CN)C(=O)N[C@@H](CC(N)=O)C(=O)N[C@@H]([C@@H](C)CC)C(=O)N[C@@H](CCSC)C(=O)N[C@@H](CC(C)C)C(=O)N2CCC[C@H]2C(=O)N[C@@H](Cc2ccccc2)C(=O)N[C@@H](Cc2c[nH]c3ccccc23)C(=O)NCC(=O)N[C@H]2CSSC[C@H](NC(=O)[C@H](CCC(=O)O)NC(=O)[C@H](Cc3ccccc3)NC(=O)[C@H](CC(=O)O)NC(=O)[C@H](CCCNC(=N)N)NC(=O)CNC2=O)C(=O)N[C@@H](CCSC)C(=O)N[C@@H](CCC(=O)O)C(=O)N[C@@H](CCC(N)=O)C(=O)N1)C(=O)N[C@H]1CSSC[C@@H](C(=O)NCC(=O)O)NC(=O)[C@H](CO)NC(=O)[C@H](CCC(N)=O)NC(=O)[C@H](Cc2ccc(O)cc2)NC(=O)[C@H](Cc2ccc(O)cc2)NC(=O)[C@H](CCC(N)=O)NC1=O [9.54.90.67] (H-GCNIMLPFWGCGRDFECMEQCICQYYQSCG-OH; disulfide 2-21, 11-17, 23-29; N-terminus and C-terminus assumed) | 1.23 | 1.23
CC[C@H](C)[C@@H]1NC(=O)[C@H](CC(N)=O)NC(=O)[C@@H](N)CSSC[C@@H](C(=O)N[C@H](C(=O)N[C@H]2CSSC[C@@H](C(=O)O)NC(=O)[C@H](CO)NC(=O)[C@H](CCC(N)=O)NC(=O)[C@H](Cc3ccc(O)cc3)NC(=O)[C@H](Cc3ccc(O)cc3)NC(=O)[C@H](CCC(N)=O)NC2=O)C(C)C)NC(=O)CNC(=O)[C@H](C)NC(=O)[C@H](CC(C)C)NC(=O)[C@@H]2CSSC[C@H](NC(=O)CNC(=O)[C@H](Cc3c[nH]c4ccccc34)NC(=O)[C@H](Cc3ccc(O)cc3)NC(=O)[C@@H]3CCCN3C(=O)[C@H](CC(C)C)NC(=O)[C@H](CCSC)NC1=O)C(=O)NCC(=O)N[C@@H](CCCNC(=N)N)C(=O)N[C@@H](CC(=O)O)C(=O)N[C@@H](Cc1ccccc1)C(=O)N[C@@H](CCC(=O)O)C(=O)N2 [9.54.90.F7Y.Δ2G] (H-CNIMLPYWGCGRDFECLAGCVCQYYQSC-OH; disulfide 1-20, 10-16, 22-28; N-terminus and C-terminus assumed) |  | 0.44
CC[C@H](C)[C@@H]1NC(=O)[C@H](CC(N)=O)NC(=O)[C@@H](NC(=O)CN)CSSC[C@@H](C(=O)N[C@H](C(=O)N[C@H]2CSSC[C@@H](C(=O)NCC(=O)O)NC(=O)[C@H](CO)NC(=O)[C@H](CCC(N)=O)NC(=O)[C@H](Cc3ccc(O)cc3)NC(=O)[C@H](Cc3ccc(O)cc3)NC(=O)[C@H](CCC(N)=O)NC2=O)C(C)C)NC(=O)CNC(=O)[C@H](C)NC(=O)[C@H](CC(C)C)NC(=O)[C@@H]2CSSC[C@H](NC(=O)CNC(=O)[C@H](Cc3c[nH]c4ccccc34)NC(=O)[C@H](Cc3ccc(O)cc3)NC(=O)[C@@H]3CCCN3C(=O)[C@H](CC(C)C)NC(=O)[C@H](CCSC)NC1=O)C(=O)NCC(=O)N[C@@H](CCCNC(=N)N)C(=O)N[C@@H](CC(=O)O)C(=O)N[C@@H](Cc1ccccc1)C(=O)N[C@@H](CCC(=O)O)C(=O)N2 [9.54.90.F8Y] (H-GCNIMLPYWGCGRDFECLAGCVCQYYQSCG-OH; disulfide 2-21, 11-17, 23-29; N-terminus and C-terminus assumed) |  | 0.85
CCCC[C@@H]1NC(=O)[C@H]([C@@H](C)CC)NC(=O)[C@H](CC(N)=O)NC(=O)[C@@H](NC(=O)CN)CSSC[C@@H](C(=O)N[C@H](C(=O)N[C@H]2CSSC[C@@H](C(=O)NCC(=O)O)NC(=O)[C@H](CO)NC(=O)[C@H](CCC(N)=O)NC(=O)[C@H](Cc3ccc(O)cc3)NC(=O)[C@H](Cc3ccc(O)cc3)NC(=O)[C@H](CCC(N)=O)NC2=O)C(C)C)NC(=O)CNC(=O)[C@H](C)NC(=O)[C@H](CC(C)C)NC(=O)[C@@H]2CSSC[C@H](NC(=O)CNC(=O)[C@H](Cc3c[nH]c4ccccc34)NC(=O)[C@H](Cc3ccccc3)NC(=O)[C@@H]3CCCN3C(=O)[C@H](CC(C)C)NC1=O)C(=O)NCC(=O)N[C@@H](CCCNC(=N)N)C(=O)N[C@@H](CC(=O)O)C(=O)N[C@@H](Cc1ccccc1)C(=O)N[C@@H](CCC(=O)O)C(=O)N2 [9.54.90.M5.Nle] |  | 0.69
CC[C@H](C)[C@@H]1NC(=O)[C@H](CC(N)=O)NC(=O)[C@@H](NC(=O)CN)CSSC[C@@H](C(=O)N[C@H](C(=O)N[C@H]2CSSC[C@@H](C(=O)NCC(=O)O)NC(=O)[C@H](CO)NC(=O)[C@H](CCC(N)=O)NC(=O)[C@H](Cc3ccc(O)cc3)NC(=O)[C@H](Cc3ccc(O)cc3)NC(=O)[C@H](CCC(N)=O)NC2=O)C(C)C)NC(=O)CNC(=O)[C@H](C)NC(=O)[C@H](CC(C)C)NC(=O)[C@@H]2CSSC[C@H](NC(=O)CNC(=O)[C@H](Cc3cccc4ccccc34)NC(=O)[C@H](Cc3ccccc3)NC(=O)[C@@H]3CCCN3C(=O)[C@H](CC(C)C)NC(=O)[C@H](CCSC)NC1=O)C(=O)NCC(=O)N[C@@H](CCCNC(=N)N)C(=O)N[C@@H](CC(=O)O)C(=O)N[C@@H](Cc1ccccc1)C(=O)N[C@@H](CCC(=O)O)C(=O)N2 [9.54.90.Naph1] (H-GCNIMLPF[1Nal]GCGRDFECLAGCVCQYYQSCG-OH; disulfide 2-21, 11-17, 23-29; N-terminus and C-terminus assumed) |  | 0.24
CC[C@H](C)[C@@H]1NC(=O)[C@H](CC(N)=O)NC(=O)[C@@H](NC(=O)CN)CSSC[C@@H](C(=O)N[C@H](C(=O)N[C@H]2CSSC[C@@H](C(=O)NCC(=O)O)NC(=O)[C@H](CO)NC(=O)[C@H](CCC(N)=O)NC(=O)[C@H](Cc3ccc(O)cc3)NC(=O)[C@H](Cc3ccc(O)cc3)NC(=O)[C@H](CCC(N)=O)NC2=O)C(C)C)NC(=O)CNC(=O)[C@H](C)NC(=O)[C@H](CC(C)C)NC(=O)[C@@H]2CSSC[C@H](NC(=O)CNC(=O)[C@H](Cc3ccc4ccccc4c3)NC(=O)[C@H](Cc3ccccc3)NC(=O)[C@@H]3CCCN3C(=O)[C@H](CC(C)C)NC(=O)[C@H](CCSC)NC1=O)C(=O)NCC(=O)N[C@@H](CCCNC(=N)N)C(=O)N[C@@H](CC(=O)O)C(=O)N[C@@H](Cc1ccccc1)C(=O)N[C@@H](CCC(=O)O)C(=O)N2 [9.54.90.Naph2] (H-GCNIMLPF[2Nal]GCGRDFECLAGCVCQYYQSCG-OH; disulfide 2-21, 11-17, 23-29; N-terminus and C-terminus assumed) |  | 0.08
